Assay results published in PubChem BioAssay AID330 (DTP/NCI, 2004).
“And” between values parts separate entries of the source, which are not always exact repeats. Identical values can stand only once. Inconclusive results and toxic doses are left out.

Tested on: P388 leukemia ip, CD2F1 mice, survival T/C
Experiment: NCI In Vivo Anticancer Drug Screen. Data for tumor model P388 Leukemia (intraperitoneal) in CD2F1 (CDF1) mice
Conditions: endpoint: median survival time, higher = longer survival
Outline: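 Mice carrying the transplanted tumor received test compound or vehicle. Survival was recorded in each group, and the value is the treated-group measurement divided by that of the vehicle-treated control group.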

[1] = dose: 50.0 mg/kg/injection, schedule: Q01DX005 (ip), vehicle: Klucel (hydroxypropylcellulose) (HPC)
[2] = dose: 100.0 mg/kg/injection, schedule: Q01DX005 (ip), vehicle: Klucel (hydroxypropylcellulose) (HPC)
[3] = dose: 60.0 mg/kg/injection, schedule: Q01DX005 (ip), vehicle: saline with Tween-80
[4] = dose: 120.0 mg/kg/injection, schedule: Q01DX005 (ip), vehicle: saline with Tween-80
[5] = dose: 240.0 mg/kg/injection, schedule: Q01DX005 (ip), vehicle: saline with Tween-80
[6] = dose: 100.0 mg/kg/injection, schedule: Q01DX009 (ip), vehicle: saline with Tween-80
[7] = dose: 200.0 mg/kg/injection, schedule: Q01DX009 (ip), vehicle: saline with Tween-80
[8] = dose: 50.0 mg/kg/injection, schedule: Q01DX005 (ip), vehicle: saline with Tween-80
[9] = dose: 100.0 mg/kg/injection, schedule: Q01DX005 (ip), vehicle: saline with Tween-80
[10] = dose: 200.0 mg/kg/injection, schedule: Q01DX005 (ip), vehicle: saline with Tween-80
[11] = dose: 50.0 mg/kg/injection, schedule: Q01DX009 (ip), vehicle: saline with Tween-80
[12] = dose: 200.0 mg/kg/injection, schedule: Q01DX005 (ip), vehicle: Klucel (hydroxypropylcellulose) (HPC)

SMILES: CC(=O)O[C@@H]1C[C@@]2(C)C(C)(C)C(=O)C=C[C@]2(C)[C@H]2CC[C@]3(C)C(=CC(=O)C3c3ccoc3)[C@]12C (stereo partly specified)
- T/C (dose: 8.5 mg/kg/injection, schedule: Q01DX005 (ip), vehicle: Klucel (hydroxypropylcellulose) (HPC)): 104 % of control
- T/C (dose: 17.0 mg/kg/injection, schedule: Q01DX005 (ip), vehicle: Klucel (hydroxypropylcellulose) (HPC)): 96 % of control
- T/C (dose: 34.0 mg/kg/injection, schedule: Q01DX005 (ip), vehicle: Klucel (hydroxypropylcellulose) (HPC)): 98 % of control
- T/C (dose: 68.0 mg/kg/injection, schedule: Q01DX005 (ip), vehicle: Klucel (hydroxypropylcellulose) (HPC)): 92 % of control
- T/C (dose: 136.0 mg/kg/injection, schedule: Q01DX005 (ip), vehicle: Klucel (hydroxypropylcellulose) (HPC)): 92 % of control

SMILES: CSCCC(NC(=O)OCC1c2ccccc2-c2ccccc21)C(=O)O (stereo unspecified)
- T/C [1]: 103 % of control
- T/C [2]: 100 % of control

SMILES: CCCCCCCCCCCCCCCCOCC(COP(=O)([O-])OCC[N+](C)(C)C)OCCCCCCCCCCCCCCCC (stereo unspecified)
- T/C [3]: 97 % of control
- T/C [4]: 100 % of control
- T/C [5]: 104 % of control

SMILES: O=c1c2ccccc2[nH]c2cc3c(=O)n4ccccc4nc3cc12
- T/C (dose: 30.0 mg/kg/injection, schedule: Q01DX005 (ip), vehicle: saline with Tween-80): 94 % of control
- T/C [3]: 101 % of control and 91 % of control
- T/C [4]: 93 % of control
- T/C [5]: 93 % of control

SMILES: C=CC(=C)CCC=C(C)C
- T/C [6]: 104 % of control
- T/C (dose: 100.0 mg/kg/injection, schedule: Q04DX003 (ip), vehicle: saline with Tween-80): 110 % of control
- T/C [7]: 113 % of control
- T/C (dose: 200.0 mg/kg/injection, schedule: Q04DX003 (ip), vehicle: saline with Tween-80): 110 % of control
- T/C (dose: 400.0 mg/kg/injection, schedule: Q04DX003 (ip), vehicle: saline with Tween-80): 110 % of control

SMILES: NC(=O)c1csc(-c2ccc(CO)o2)n1
- T/C [8]: 95 % of control
- T/C [9]: 86 % of control

SMILES: C=CC[Si](CC=C)(c1ccccc1)c1ccccc1
- T/C (dose: 6.25 mg/kg/injection, schedule: Q01DX009 (ip), vehicle: saline): 99 % of control and 96 % of control (2×)
- T/C (dose: 200.0 mg/kg/injection, schedule: Q01DX009 (ip), vehicle: saline): 98 % of control

SMILES: NCCc1c[nH]c2ccc(OCc3ccccc3)cc12
- T/C (dose: 50.0 mg/kg/injection, schedule: Q04DX003 (ip), vehicle: saline): 109 % of control
- T/C (dose: 100.0 mg/kg/injection, schedule: Q04DX003 (ip), vehicle: saline): 116 % of control

SMILES: CC(C)(C)c1cc(CCCCCCCC2(CCCCCCCc3cc(C(C)(C)C)cc(C(C)(C)C)c3)OC(COCCOCCOCCCC#N)C(COCCOCCOCCCC#N)O2)cc(C(C)(C)C)c1 (stereo unspecified)
- T/C (dose: 25.0 mg/kg/injection, schedule: Q01DX005 (ip), vehicle: saline with Tween-80): 97 % of control
- T/C [8]: 95 % of control
- T/C [9]: 113 % of control
- T/C [10]: 100 % of control

SMILES: CNC(=S)N/N=C(\C)c1ccco1
- T/C (dose: 100.0 mg/kg/injection, schedule: Q01DX001 (ip), vehicle: saline): 104 % of control
- T/C (dose: 200.0 mg/kg/injection, schedule: Q01DX001 (ip), vehicle: saline): 97 % of control
- T/C (dose: 400.0 mg/kg/injection, schedule: Q01DX001 (ip), vehicle: saline): 97 % of control

SMILES: N#Cc1nc(CC(=O)/C=C/c2ccccc2)c(CC(=O)/C=C/c2ccccc2)nc1C#N
- T/C (dose: 60.0 mg/kg/injection, schedule: Q01DX005 (ip), vehicle: saline): 103 % of control
- T/C (dose: 120.0 mg/kg/injection, schedule: Q01DX005 (ip), vehicle: saline): 103 % of control
- T/C (dose: 240.0 mg/kg/injection, schedule: Q01DX005 (ip), vehicle: saline): 112 % of control

SMILES: CCN(CC)C(=O)C1CCCCN1Cc1c[nH]c2ccccc12 (stereo unspecified)
- T/C (dose: 12.5 mg/kg/injection, schedule: Q01DX009 (ip), vehicle: saline with Tween-80): 104 % of control
- T/C (dose: 25.0 mg/kg/injection, schedule: Q01DX009 (ip), vehicle: saline with Tween-80): 109 % of control
- T/C [11]: 101 % of control
- T/C [6]: 99 % of control

SMILES: CC(C)(C)N=C(Cc1ccccc1)N1CCCCC1
- T/C [11]: 100 % of control
- T/C [6]: 96 % of control

SMILES: O=C1NC(O)c2cccc(F)c2O1 (stereo unspecified)
- T/C [8]: 100 % of control
- T/C [9]: 102 % of control

SMILES: CC1CCC2(C)OC1OC2CN (stereo unspecified)
- T/C [8]: 100 % of control
- T/C [9]: 99 % of control
- T/C [10]: 100 % of control

SMILES: CCN(CC)c1ccc2cc3ccc(=[N+](CC)CC)cc-3oc2c1
- T/C (dose: 1.0 mg/kg/injection, schedule: Q01DX009 (ip), vehicle: saline): 109 % of control

SMILES: CCOC(=O)c1ccc(NC(=O)Nc2ccc(NC(C)=O)cc2)cc1
- T/C (dose: 15.0 mg/kg/injection, schedule: Q01DX005 (ip), vehicle: Klucel (hydroxypropylcellulose) (HPC)): 95 % of control
- T/C (dose: 30.0 mg/kg/injection, schedule: Q01DX005 (ip), vehicle: Klucel (hydroxypropylcellulose) (HPC)): 96 % of control
- T/C (dose: 60.0 mg/kg/injection, schedule: Q01DX005 (ip), vehicle: Klucel (hydroxypropylcellulose) (HPC)): 87 % of control and 88 % of control and 93 % of control
- T/C (dose: 120.0 mg/kg/injection, schedule: Q01DX005 (ip), vehicle: Klucel (hydroxypropylcellulose) (HPC)): 87 % of control
- T/C (dose: 240.0 mg/kg/injection, schedule: Q01DX005 (ip), vehicle: Klucel (hydroxypropylcellulose) (HPC)): 87 % of control

SMILES: N#CCCN1CCC(N)=NC1=NC#N
- T/C (dose: 25.0 mg/kg/injection, schedule: Q01DX005 (ip), vehicle: Klucel (hydroxypropylcellulose) (HPC)): 100 % of control
- T/C [1]: 112 % of control
- T/C [2]: 94 % of control
- T/C [12]: 96 % of control

SMILES: COC1=Cc2c(O)c3c(c(O)c2C(OC2CC(N)C(O)C(C)O2)C1)C(=O)c1c(OC)cccc1C3=O (stereo unspecified)
- T/C (dose: 3.13 mg/kg/injection, schedule: Q04DX003 (ip), vehicle: water): 98 % of control
- T/C (dose: 6.25 mg/kg/injection, schedule: Q04DX003 (ip), vehicle: water): 98 % of control
- T/C (dose: 12.5 mg/kg/injection, schedule: Q04DX003 (ip), vehicle: water): 102 % of control
- T/C (dose: 25.0 mg/kg/injection, schedule: Q04DX003 (ip), vehicle: water): 109 % of control
- T/C (dose: 50.0 mg/kg/injection, schedule: Q04DX003 (ip), vehicle: water): 107 % of control

SMILES: CC(=O)Oc1cc2c(cc1OC(C)=O)OCC(c1ccc(C)cc1)C2 (stereo unspecified)
- T/C [3]: 105 % of control
- T/C [4]: 108 % of control
- T/C [5]: 107 % of control

SMILES: OCCCOCCCOCCCOCCCOCCCOCCCO
- T/C [8]: 100 % of control
- T/C [9]: 96 % of control
- T/C [10]: 102 % of control

SMILES: CN1CC(F)OC(F)(F)C1 (stereo unspecified)
- T/C (dose: 50.0 mg/kg/injection, schedule: Q01DX005 (ip), vehicle: saline): 102 % of control
- T/C (dose: 100.0 mg/kg/injection, schedule: Q01DX005 (ip), vehicle: saline): 100 % of control
- T/C (dose: 200.0 mg/kg/injection, schedule: Q01DX005 (ip), vehicle: saline): 100 % of control

SMILES: CC(=O)OC1COC(Nc2[nH]c(=O)n(C)c(=O)c2C(=O)CCl)C(OC(C)=O)C1OC(C)=O (stereo unspecified)
- T/C [8]: 104 % of control
- T/C [9]: 96 % of control
- T/C [10]: 93 % of control

SMILES: CC(O)C(NC(=O)OC(C)(C)C)C(=O)ON1C(=O)CCC1=O (stereo unspecified)
- T/C [11]: 101 % of control
- T/C [6]: 101 % of control
- T/C [7]: 101 % of control

SMILES: Clc1ccc2c(ccc3ccc(Cl)nc32)n1
- T/C (dose: 25.0 mg/kg/injection, schedule: Q04DX002 (ip), vehicle: saline with Tween-80): 100 % of control
- T/C (dose: 50.0 mg/kg/injection, schedule: Q04DX002 (ip), vehicle: saline with Tween-80): 98 % of control
- T/C (dose: 100.0 mg/kg/injection, schedule: Q04DX002 (ip), vehicle: saline with Tween-80): 89 % of control

SMILES: O=C1NCC(Br)C(=O)N1 (stereo unspecified)
- T/C (dose: 25.0 mg/kg/injection, schedule: Q01DX009 (ip), vehicle: other): 113 % of control
- T/C (dose: 25.0 mg/kg/injection, schedule: Q01DX009 (ip), vehicle: saline + Tween-80 + alcohol): 112 % of control
- T/C (dose: 50.0 mg/kg/injection, schedule: Q01DX009 (ip), vehicle: saline + Tween-80 + alcohol): 121 % of control
- T/C (dose: 100.0 mg/kg/injection, schedule: Q01DX009 (ip), vehicle: saline + Tween-80 + alcohol): 122 % of control

SMILES: CCCCCNC(=O)CCC(NC(=O)c1ccc(N(C)Cc2cnc3nc(N)nc(N)c3n2)cc1)C(=O)O (stereo unspecified)
- T/C (dose: 200.0 mg/kg/injection, schedule: Q01DX009 (ip), vehicle: sodium bicarbonate): 155 % of control
- T/C (dose: 400.0 mg/kg/injection, schedule: Q01DX009 (ip), vehicle: sodium bicarbonate): 91 % of control

SMILES: COC1/C=C/OC2(C)Oc3c(C)c(O)c4c(O)c(c(/C=N/n5cnc6c(ncn6C6OC(CO)C(O)C6O)c5=O)c(O)c4c3C2=O)NC(=O)/C(C)=C\C=C\C(C)C(O)C(C)C(O)C(C)C(OC(C)=O)C1C (stereo unspecified)
- T/C [11]: 106 % of control
- T/C [6]: 97 % of control
- T/C [7]: 102 % of control

SMILES: CP(=O)(OCCOCCOP(C)(=O)c1ccccc1)c1ccccc1 (stereo unspecified)
- T/C [1]: 98 % of control
- T/C [2]: 103 % of control
- T/C [12]: 101 % of control
